Where two headings read alike, the source gives them in different places.
Key:
Type in all cases: biochemical
[1] = biological target: T1, purified recombinant rat FAAH (Rattus norvegicus, UniProt P97612); assay: FAAH inhibition enzyme assay (14C-oleamide hydrolysis, Dixon plot), rat enzyme
T1 construct: The truncated rat FAAH (rFAAH) was expressed in E. coli and purified as described; made in house; host or cells: Escherichia coli
T1 sequence (P97612 30-579 limits assumed): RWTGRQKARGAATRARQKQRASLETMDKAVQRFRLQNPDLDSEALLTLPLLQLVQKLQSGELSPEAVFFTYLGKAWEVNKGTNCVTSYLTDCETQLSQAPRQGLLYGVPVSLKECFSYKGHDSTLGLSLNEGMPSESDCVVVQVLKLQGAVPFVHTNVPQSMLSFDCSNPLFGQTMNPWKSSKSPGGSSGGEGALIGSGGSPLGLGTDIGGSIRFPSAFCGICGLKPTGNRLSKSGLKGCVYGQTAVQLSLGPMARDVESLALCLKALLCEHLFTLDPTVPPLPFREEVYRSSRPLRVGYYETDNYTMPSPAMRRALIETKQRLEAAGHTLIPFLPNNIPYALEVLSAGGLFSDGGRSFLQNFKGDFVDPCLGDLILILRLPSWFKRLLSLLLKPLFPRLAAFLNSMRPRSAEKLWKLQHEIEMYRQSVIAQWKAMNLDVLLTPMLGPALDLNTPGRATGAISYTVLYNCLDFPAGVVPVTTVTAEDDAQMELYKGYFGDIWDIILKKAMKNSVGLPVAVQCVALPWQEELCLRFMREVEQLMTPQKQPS
Text: The purified recombinant rFAAH was used in the inhibition assays unless otherwise indicated.
The ^14C-labeled oleamide (substrate) and oleic acid (product) were extracted with EtOAc and analyzed by TLC.

[2] = biological target: T2, triacylglycerol hydrolase (TGH) (Mus musculus, UniProt Q8VCT4); assay: Activity based protein profiling (proteome-wide selectivity screening, FP-Rh), TGH; conditions: Table 4; for TGH selectivity (value in parentheses): ratio TGH IC50 / FAAH IC50 (fold selectivity for FAAH); for IC50: activity based protein profiling
T2 construct: with FP-Rh in brain and heart membrane proteome; from tissue; host or cells: brain and heart membrane proteome
T2 sequence (Q8VCT4 19-565): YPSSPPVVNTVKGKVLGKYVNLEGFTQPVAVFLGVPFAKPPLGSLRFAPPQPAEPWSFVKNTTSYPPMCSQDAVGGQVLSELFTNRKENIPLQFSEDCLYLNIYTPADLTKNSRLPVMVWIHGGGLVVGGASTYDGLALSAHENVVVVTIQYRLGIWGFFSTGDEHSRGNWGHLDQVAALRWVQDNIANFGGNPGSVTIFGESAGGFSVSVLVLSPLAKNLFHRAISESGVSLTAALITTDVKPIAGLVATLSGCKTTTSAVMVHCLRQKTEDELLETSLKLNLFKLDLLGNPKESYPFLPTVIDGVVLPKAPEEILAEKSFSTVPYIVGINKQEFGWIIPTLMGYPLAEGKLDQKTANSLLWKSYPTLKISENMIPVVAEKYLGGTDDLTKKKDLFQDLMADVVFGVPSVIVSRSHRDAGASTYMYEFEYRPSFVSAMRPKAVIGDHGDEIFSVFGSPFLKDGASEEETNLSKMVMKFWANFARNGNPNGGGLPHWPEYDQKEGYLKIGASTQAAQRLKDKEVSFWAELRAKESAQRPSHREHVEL
Text: (§1) Enzyme targets such as FAAH, KIAA1363, and TGH are labeled at the left margin.

KIAA1363 = biological target: T3, KIAA1363 (Mus musculus, UniProt Q8BLF1); assay: Activity based protein profiling (proteome-wide selectivity screening, FP-Rh), KIAA1363; conditions: Table 4; for IC50: activity based protein profiling
T3 construct: with FP-Rh in brain and heart membrane proteome; from tissue; host or cells: brain and heart membrane proteome
T3 sequence (Q8BLF1 1-408): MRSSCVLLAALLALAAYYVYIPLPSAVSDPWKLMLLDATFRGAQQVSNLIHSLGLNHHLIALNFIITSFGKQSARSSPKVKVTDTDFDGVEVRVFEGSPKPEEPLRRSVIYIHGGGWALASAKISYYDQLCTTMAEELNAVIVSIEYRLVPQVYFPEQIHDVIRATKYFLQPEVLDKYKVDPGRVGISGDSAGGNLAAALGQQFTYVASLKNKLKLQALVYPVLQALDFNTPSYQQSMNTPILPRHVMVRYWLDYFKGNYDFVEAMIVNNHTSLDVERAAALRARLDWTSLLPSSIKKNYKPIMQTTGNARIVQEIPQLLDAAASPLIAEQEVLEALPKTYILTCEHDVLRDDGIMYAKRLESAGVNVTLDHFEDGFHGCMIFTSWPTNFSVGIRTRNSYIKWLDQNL
Text: as §1

[3] = Table 2, rat FAAH, pH 9 assay conditions, read-out: Ki
[4] = rat FAAH, pH 9 assay conditions

## O=C(CCCCCCc1ccccc1)c1nnc(-c2ccco2)o1 [8c]
[1]; [3]
  Ki: 0.56 nM
[2]
  TGH selectivity (value in parentheses): 80

## O=C(CCCCCCc1ccccc1)c1nnc(-c2cccs2)o1 [8d, 7-Phenyl-1-(5-(thien-2-yl)-1,3,4-oxadiazol-2-yl)-heptan-1-one]
[1]; [3]
  Ki: 0.8 nM

## O=C(CCCCCCc1ccccc1)c1nnc(-c2ccccc2)o1 [8e]
KIAA1363; ratio KIAA1363 IC50 / FAAH IC50 (fold selectivity for FAAH)
  KIAA1363 selectivity (value in parentheses): > 4000
[1]; [3]
  Ki: 2.2 nM
[1]; Table 4, read-out: FAAH Ki
  Ki: 2.2 nM
[2]
  TGH selectivity (value in parentheses): 10

## COC(=O)c1nnc(C(=O)CCCCCCc2ccccc2)o1 [8h, Methyl 5-(7-Phenylheptanoyl)-1,3,4-oxadiazole-2-carboxylate]
KIAA1363
  IC50: > 100000 nM
[2]
  IC50: 2000 nM

## O=C(CCCCCCc1ccccc1)c1nc(-c2ccco2)no1 [9c, 1-(3-(Furan-2-yl)-1,2,4-oxadiazol-5-yl)-7-phenylheptan-1-one]
[1]; [3]
  Ki: 1 nM

## O=C(CCCCCCc1ccccc1)c1nc(-c2cccs2)no1 [9d, 7-Phenyl-1-(3-(thiophen-2-yl)-1,2,4-oxadiazol-5-yl)-heptan-1-one]
[1]; [3]
  Ki: 1.6 nM

## O=C(O)c1cccc(-c2noc(C(=O)CCCCCCc3ccccc3)n2)n1 [9g, 6-(5-(7-Phenylheptanoyl)-1,2,4-oxadiazol-3-yl)-picolinic Acid]
KIAA1363
  IC50: > 100000 nM
[2]
  IC50: 40000 nM

## O=C(CCCCCCc1ccccc1)c1noc(-c2ccco2)n1 [10c, 1-(5-(Furan-2-yl)-1,2,4-oxadiazol-3-yl)-7-phenylheptan-1-one]
[1]; [3]
  Ki: 8.5 nM

## O=C(CCCCCCc1ccccc1)c1noc(-c2cccs2)n1 [10d, 7-Phenyl-1-(5-(thiophen-2-yl)-1,2,4-oxadiazol-3-yl)-heptan-1-one]
[1]; [3]
  Ki: 44 nM

## COC(=O)c1cccc(-c2nc(C(=O)CCCCCCc3ccccc3)no2)n1 [10f, Methyl 6-(3-(7-Phenylheptanoyl)-1,2,4-oxadiazol-5-yl)-picolinate]
KIAA1363
  IC50: > 100000 nM

## O=C(CCCCCCc1ccccc1)c1ncc(-c2ccccn2)s1 [11b, 7-Phenyl-1-(5-(pyridin-2-yl)-thiazol-2-yl)-heptan-1-one]
KIAA1363
  IC50: > 100000 nM
[2]
  IC50: 8000 nM

## O=C(CCCCCCc1ccccc1)c1ncc(-c2ccco2)s1 [11c, 1-(5-(Furan-2-yl)-thiazol-2-yl)-7-phenylheptan-1-one]
[1]; [3]
  Ki: 1500 nM

## O=C(CCCCCCc1ccccc1)c1ncc(-c2cccs2)s1 [11d, 7-Phenyl-1-(5-(thiophen-2-yl)-thiazol-2-yl)-heptan-1-one]
[1]; [3]
  Ki: 2000 nM

## O=C(O)c1cccc(-c2cnc(C(=O)CCCCCCc3ccccc3)s2)n1 [11g, 6-(2-(7-Phenylheptanoyl)thiazol-5-yl)-picolinic Acid]
KIAA1363
  IC50: > 100000 nM
[2]
  IC50: 30000 nM

## O=C(CCCCCCc1ccccc1)c1nnc(-c2ccco2)s1 [12c, 1-(5-(Furan-2-yl)-1,3,4-thiadiazol-2-yl)-7-phenylheptan-1-one]
[1]; [3]
  Ki: 7.4 nM

## O=C(CCCCCCc1ccccc1)c1nnc(-c2cccs2)s1 [12d, 7-Phenyl-1-(5-(thiophen-2-yl)-1,3,4-thiadiazol-2-yl)-heptan-1-one]
[1]; [3]
  Ki: 27 nM

## COC(=O)c1cccc(-c2nnc(C(=O)CCCCCCc3ccccc3)s2)n1 [12f, Methyl 6-(5-(7-Phenylheptanoyl)-1,3,4-thiadiazol-2-yl)-picolinate]
KIAA1363
  IC50: > 100000 nM

## O=C(O)c1cccc(-c2nnc(C(=O)CCCCCCc3ccccc3)s2)n1 [12g, 6-(5-(7-Phenylheptanoyl)-1,3,4-thiadiazol-2-yl)-picolinic Acid]
KIAA1363
  IC50: > 100000 nM
[2]
  IC50: > 100000 nM

## COC(=O)c1nnc(C(=O)CCCCCCc2ccccc2)s1 [12h, Methyl 5-(7-Phenylheptanoyl)-1,3,4-thiadiazole-2-carboxylate]
KIAA1363
  IC50: > 100000 nM
[2]
  IC50: 11000 nM

## O=C(CCCCCCc1ccccc1)c1ccc(-c2ccccn2)nn1 [13b, 7-Phenyl-1-(6-(pyridin-2-yl)-pyridazin-3-yl)-heptan-1-one]
KIAA1363
  IC50: > 100000 nM
[2]
  IC50: > 100000 nM

## O=C(CCCCCCc1ccccc1)c1ccc(-c2ccco2)nn1 [13c, 1-(6-(Furan-2-yl)-pyridazin-3-yl)-7-phenylheptan-1-one]
[1]; [3]
  Ki: 40 nM

## O=C(CCCCCCc1ccccc1)c1ccc(-c2cccs2)nn1 [13d, 7-Phenyl-1-(6-(thiophen-2-yl)-pyridazin-3-yl)-heptan-1-one]
[1]; [3]
  Ki: 46 nM

## O=C(O)c1cccc(-c2ccc(C(=O)CCCCCCc3ccccc3)nn2)n1 [13g, 6-(6-(7-Phenylheptanoyl)-pyridazin-3-yl)-picolinic Acid]
KIAA1363
  IC50: > 100000 nM
[2]
  IC50: > 100000 nM

## O=C(CCCCCCc1ccccc1)c1nnc[nH]1 [14a, 7-Phenyl-1-(4H-1,2,4-triazol-3-yl)-heptan-1-one]
[1]; [3]
  Ki: > 1000 nM

## O=C(CCCCCCc1ccccc1)c1nnc(-c2ccccn2)[nH]1 [14b, 7-Phenyl-1-(5-(pyridin-2-yl)-4H-1,2,4-triazol-3-yl)-heptan-1-one]
[1]; [3]
  Ki: > 100000 nM

## O=C(CCCCCCc1ccccc1)c1nnc(-c2ccco2)[nH]1 [14c, 1-(5-(Furan-2-yl)-4H-1,2,4-triazol-3-yl)-7-phenylheptan-1-one]
[1]; [3]
  Ki: > 1000 nM

## O=C(CCCCCCc1ccccc1)c1nnc(-c2cccs2)[nH]1 [14d, 7-Phenyl-1-(5-(thiophen-2-yl)-4H-1,2,4-triazol-3-yl)-heptan-1-one]
[1]; [3]
  Ki: > 1000 nM

## COC(=O)c1nnc(C(=O)CCCCCCc2ccccc2)[nH]1 [14h, Methyl 5-(7-Phenylheptanoyl)-4H-1,2,4-triazole-3-carboxylate]
[1]; [4]
  FAAH inhibition (in words): inactive

## O=C(CCCCCCc1ccccc1)c1nnn(-c2ccco2)n1 [15c, 1-(2-(Furan-2-yl)-2H-tetrazol-5-yl)-7-phenylheptan-1-one]
[1]; [3]
  Ki: 5 nM

## O=C(CCCCCCc1ccccc1)c1nnn(-c2cccs2)n1 [15d, 7-Phenyl-1-(2-(thiophen-2-yl)-2H-tetrazol-5-yl)-heptan-1-one]
[1]; [3]
  Ki: 8.5 nM

## O=C(CCCCCCc1ccccc1)c1nnn(-c2ccccc2)n1 [15e, 7-Phenyl-1-(2-phenyl-2H-tetrazol-5-yl)-heptan-1-one]
[1]; [3]
  Ki: 16 nM

## Cn1nnc(C(=O)CCCCCCc2ccccc2)n1 [19a, 1-(2-Methyl-2H-tetrazol-5-yl)-7-phenylheptan-1-one]
[1]; [4]
  FAAH inhibition (in words): displayed FAAH inhibition at levels consistent with related compounds

## Cn1nnnc1C(=O)CCCCCCc1ccccc1 [19b, 1-(1-Methyl-1H-tetrazol-5-yl)-7-phenylheptan-1-one]
[1]; [4]
  FAAH inhibition (in words): displayed FAAH inhibition at levels consistent with related compounds

## O=C(CCCCCCc1ccccc1)c1ncc(-c2ccccn2)o1 [compound 2, reference compound]
[2]
  IC50: 600 nM

## O=C(CCCCCCc1ccccc1)c1cnc(-c2ccccn2)o1 [compound 6, 7-Phenyl-1-(2-(pyridin-2-yl)oxazol-5-yl)-heptan-1-one]
[1]; with respect to oxazole 2
  loss of FAAH inhibition: > 4000 fold

From patent US8987312B2, “Alpha-keto heterocycles as FAAH inhibitors” (The Scripps Research Institute, priority 2008, dated 2015)
